Measured values published in patent publication US20210317092A1 (BAYER PHARMA AKTIENGESELLSCHAFT, priority 2016, published 2021).

molecular target: T1, human Bradykinin B1 receptor (Homo sapiens, UniProt P46663); experiment: Calcium flux Assay (FLIPR) with recombinant CHO-K1 cells expressing human Bradykinin B1 receptor, in presence (hB1 IC50) or absence (hB1 free IC50) of 0.1% BSA; format: cell-based; conditions: in absence of 0.1% BSA, read-out: hB1 free IC50
T1 construct: host or cells: CHO-K1
T1 sequence (P46663 1-353): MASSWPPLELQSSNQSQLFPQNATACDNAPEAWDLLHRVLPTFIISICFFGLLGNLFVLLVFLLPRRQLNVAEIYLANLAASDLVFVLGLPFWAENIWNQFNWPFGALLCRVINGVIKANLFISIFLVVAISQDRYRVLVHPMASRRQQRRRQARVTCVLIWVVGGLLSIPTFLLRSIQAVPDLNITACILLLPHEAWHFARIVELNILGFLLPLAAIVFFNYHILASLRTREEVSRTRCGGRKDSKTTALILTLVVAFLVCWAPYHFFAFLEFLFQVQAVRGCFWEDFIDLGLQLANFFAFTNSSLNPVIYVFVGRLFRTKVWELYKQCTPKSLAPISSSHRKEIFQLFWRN

IC50 | SMILES
227 nM | O=C(Nc1ccc(-c2cnc(C(F)(F)F)nc2)c(-c2nnn[nH]2)c1)C1(c2ccc(Cl)c(F)c2)CC1 [Example 251, 1-(4-chloro-3-fluorophenyl)-N-{3-(1H-tetrazol-5-yl)-4-[2-(trifluoromethyl)pyrimidin-5-yl]phenyl} cyclopropane-carboxamide]
92.8 nM | O=C(Nc1ccc(-c2cnc(C(F)(F)F)nc2)c(-c2nnn[nH]2)c1)C1(c2ccc(Cl)cc2F)CC1 [Example 252, 1-(4-chloro-2-fluorophenyl)-N-{3-{1H-tetrazol-5-yl)-4-[2-(trifluoromethyl)pyrimidin-5-yl]phenyl} cyclopropane-carboxamide]
309 nM | CCOc1ccc(-c2ccc(NC(=O)C3(c4cc(F)ccc4C)CC3)cc2-c2nnn[nH]2)cn1 [Example 254, N-[4-(6-ethoxypyridin-3-yl)-3-(1H-tetrazol-5-yl)phenyl]-1-(5-fluoro-2-methylphenyl)cy-clopropanecar-boxamide]
702 nM | COc1ccc(-c2ccc(NC(=O)C3(c4cc(F)ccc4C)CC3)cc2-c2nnn[nH]2)cc1OC [Example 255, N-[3′,4′-dimethoxy-2-(1H-tetrazol-5-yl)biphenyl-4-yl]-1-(5-fluoro-2-methylphenyl)cy-clopropanecar-boxamide]
288 nM | CCOc1ccc(-c2ccc(NC(=O)C3(c4cccc(F)c4C)CC3)cc2-c2nnn[nH]2)cn1 [Example 256, N-[4-(6-ethoxypyridin-3-yl)-3-(1H-tetrazol-5-yl)phenyl]-1-(3-fluoro-2-methylphenyl)cy-clopropanecar-boxamide]
2330 nM | COc1ccc(-c2cc(F)c(NC(=O)C3(c4ccc(Cl)cc4)CC3)cc2-c2nnn[nH]2)cc1OC [Example 264, 1-(4-Chlorophenyl)-N-[5-fluoro-3′,4′-dimethoxy-2-(1H-tetrazol-5-yl)biphenyl-4-yl]cyclopropane carboxamide]
92 nM | O=C(Nc1ccc(-c2ccc(C(F)F)nc2)c(-c2nnn[nH]2)c1)C1(c2ccc(F)cc2)CC1 [Example 268, N-{4-[6-(difluoromethyl)pyridin-3-yl]-3-(1H-tetrazol-5-yl)phenyl}-1-(4-fluorophenyl)cy-cloproapnecarbox-amide]
13.2 nM | O=C(Nc1ccc(-c2ccc(C(F)F)nc2)c(-c2nnn[nH]2)c1)C1(c2ccc(Cl)cc2)CC1 [Example 269, 1-(4-chlorophenyl)-N-{4-[6-(difluoromethyl)pyridin-3-yl]-3-(1H-tetrazol-5-yl)phenyl}cyclopro-panecarboxa-mide]
17.4 nM | O=C(Nc1ccc(-c2ccc(C(F)F)nc2)c(-c2nnn[nH]2)c1)C1(c2ccc(C(F)(F)F)cc2)CC1 [Example 270, N-{4-[6-(difluoromethyl)pyridin-3-yl]-3-(1H-tetrazol-5-yl)phenyl}-1-[4-(trifluoromethyl)phenyl]cyclopro-panecarboxamide]
6.09 nM | O=C(Nc1ccc(-c2ccc(C(F)F)nc2)c(-c2nnn[nH]2)c1)C1(c2ccc(OC(F)(F)F)cc2)CC1 [Example 271, N-{4-[6-(difluoromethyl)pyridin-3-yl]-3-(1H-tetrazol-5-yl)phenyl}-1-[4-(trifluoromethoxy)phenyl]cyclo-propanecarboxa-mide]
4.72 nM | O=C(Nc1ccc(-c2ccc(C(F)F)nc2)c(-c2nnn[nH]2)c1)C1(c2ccc(Cl)c(F)c2)CC1 [Example 272, 1-(4-chloro-3-fluorophenyl)-N-{4-[6-(difluoromethyl)pyridin-3-yl]-3-(1H-tetrazol-5-yl)phenyl}cyclopro-panecarboxa-mide]
24.9 nM | O=C(Nc1ccc(-c2ccc(C(F)F)nc2)c(-c2nnn[nH]2)c1)C1(c2ccc(F)cc2F)CC1 [Example 273, N-{4-[6-(difluoromethyl)pyridin-3-yl]-3-(1H-tetrazol-5-yl)phenyl}-1-(2,4-difluorophenyl)cy-clopropanecar-boxamide]
6.35 nM | O=C(Nc1ccc(-c2ccc(C(F)F)nc2)c(-c2nnn[nH]2)c1)C1(c2ccc(Cl)cc2F)CC1 [Example 274, 1-(4-chloro-2-fluorophenyl)-N-{4-[6-(difluoromethyl)pyridin-3-yl]-3-(1H-tetrazol-5-yl)phenyl}cyclopro-panecarboxa-mide]
8.48 nM | Cc1ccc(C2(C(=O)Nc3ccc(-c4ccc(C(F)F)nc4)c(-c4nnn[nH]4)c3)CC2)c(F)c1 [Example 275, N-{4-[6-(difluoromethyl)pyridin-3-yl]-3-(1H-tetrazol-5-yl)phenyl}-1-(2-fluoro-4-methylphenyl)cy-clopropanecar-boxamide]
1.83 nM | O=C(Nc1ccc(-c2ccc(C(F)F)nc2)c(-c2nnn[nH]2)c1)C1(c2ccc(OC(F)(F)F)cc2F)CC1 [Example 276, N-{4-[6-(difluoromethyl)pyridin-3-yl]-3-(1H-tetrazol-5-yl)phenyl}-1-[2-fluoro-4-(trifluoromethoxy)phenyl]cyclo-propanecarboxa-mide]
3.19 nM | CC(F)(F)c1ccc(-c2ccc(NC(=O)C3(c4ccc(C(F)(F)F)cc4)CC3)cc2-c2nnn[nH]2)cn1 [Example 277, N-{4-[6-(1,1-difluoroethyl)py-ridin-3-yl]-3-(1H-tetrazol-5-yl)phenyl}-1-[4-(trifluoromethyl)phenyl]cyclopro-panecarboxamide]
3.62 nM | CC(F)(F)c1ccc(-c2ccc(NC(=O)C3(c4ccc(OC(F)(F)F)cc4)CC3)cc2-c2nnn[nH]2)cn1 [Example 278, N-{4-[6-(1,1-difluroethyl)py-ridin-3-yl]-3-(1H-tetrazol-5-yl)phenyl}-1-[4-(trifluoromethoxy)phenyl]cyclo-propanecarboxa-mide]
11.3 nM | Cc1ccc(C2(C(=O)Nc3ccc(-c4ccc(C(C)(F)F)nc4)c(-c4nnn[nH]4)c3)CC2)c(F)c1 [Example 280, N-{4-[6-(1,1-difluoroethyl)py-ridin-3-yl]-3-(1H-tetrazol-5-yl)phenyl}-1-(2-fluoro-4-methylphenyl)cy-clopropanecar-boxamide]
3.49 nM | CC(F)(F)c1ccc(-c2ccc(NC(=O)C3(c4ccc(OC(F)(F)F)cc4F)CC3)cc2-c2nnn[nH]2)cn1 [Example 282, N-{4-[6-(1,1-difluoroethyl)py-ridin-3-yl]-3-(1H-tetrazol-5-yl)phenyl}-1-[2-fluoro-4-(trifluoromethoxy)phenyl]cyclo-propanecarboxa-mide]
8.19 nM | CCC(F)(F)c1ccc(-c2ccc(NC(=O)C3(c4cccc(Cl)c4)CC3)cc2-c2nnn[nH]2)cn1 [Example 283, 1-(3-chlorophenyl)-N-{4-[6-(1,1-difluoropropyl)py-ridin-3-yl]-3-(1H-tetrazol-5-yl)phenyl}cyclopro-panecarboxa-mide]
15.3 nM | CCC(F)(F)c1ccc(-c2ccc(NC(=O)C3(c4ccc(F)c(F)c4)CC3)cc2-c2nnn[nH]2)cn1 [Example 284, 1-(3,4-difluorophenyl)-N-{4-[6-(1,1-difluoropropyl)py-ridin-3-yl]-3-(1H-tetrazol-5-yl)phenyl}cyclopro-panecarboxa-mide]
15.8 nM | CCC(F)(F)c1ccc(-c2ccc(NC(=O)C3(c4ccc(C)cc4F)CC3)cc2-c2nnn[nH]2)cn1 [Example 285, N-{4-[6-(1,1-difluoropropyl)py-ridin-3-yl]-3-(1H-tetrazol-5-yl)phenyl}-1-(2-fluoro-4-methylphenyl)cy-clopropanecar-boxamide]
4.34 nM | CCC(F)(F)c1ccc(-c2ccc(NC(=O)C3(c4ccc(C(F)(F)F)cc4F)CC3)cc2-c2nnn[nH]2)cn1 [Example 286, N-{4-[6-(1,1-difluoropropyl)py-ridin-3-yl]-3-(1H-tetrazol-5-yl)phenyl}-1-[2-fluoro-4-(trifluoromethyl)phenyl]cyclopro-panecarboxamide]
3.93 nM | CCC(F)(F)c1ccc(-c2ccc(NC(=O)C3(c4ccc(OC(F)(F)F)cc4F)CC3)cc2-c2nnn[nH]2)cn1 [Example 287, N-{4-[6-(1,1-difluoropropyl)py-ridin-3-yl]-3-(1H-tetrazol-5-yl)phenyl}-1-[2-fluoro-4-(trifluoromethoxy)phenyl]cyclo-propanecarboxa-mide]
6.81 nM | O=C(Nc1ccc(-c2ccc(C(F)(F)F)nc2)c(-c2nnn[nH]2)c1)C1(c2ccc(C(F)(F)F)c(F)c2)CC1 [Example 288, 1-[3-fluoro-4-(trifluoromethyl)phenyl]-N-{3-(1H-tetrazol-5-yl)-4-[6-(trifluoromethyl)pyridin-3-yl]phenyl}cyclopro-panecarboxa-mide]
50.2 nM | O=C(Nc1ccc(-c2ccc(C(F)(F)F)nc2)c(-c2nnn[nH]2)c1)C1(c2cc(F)cc(C(F)(F)F)c2)CC1 [Example 289, 1-[3-fluoro-5-(trifluoromethyl)phenyl]-N-{3-(1H-tetrazol-5-yl)-4-[6-(trifluoromethyl)pyridin-3-yl]phenyl}cyclopro-panecarboxa-mide]
135 nM | Cc1cc(Cl)ccc1C1(C(=O)Nc2ccc(-c3ccc(C(F)(F)F)nc3)c(-c3nnn[nH]3)c2)CC1 [Example 290, 1-(4-chloro-2-methylphenyl)-N-{3-(1H-tetrazol-5-yl)-4-[6-(trifluoromethyl)pyridin-3-yl]phenyl}cyclopro-panecarboxa-mide]

same assay, conditions: in presence of 0.1% BSA, read-out: hB1 IC50

IC50 | SMILES
245 nM | CCOc1ccc(-c2ccc(NC(=O)C3(c4cc(F)ccc4C)CC3)cc2-c2nnn[nH]2)cn1 [Example 254, N-[4-(6-ethoxypyridin-3-yl)-3-(1H-tetrazol-5-yl)phenyl]-1-(5-fluoro-2-methylphenyl)cy-clopropanecar-boxamide]
452 nM | COc1ccc(-c2ccc(NC(=O)C3(c4cc(F)ccc4C)CC3)cc2-c2nnn[nH]2)cc1OC [Example 255, N-[3′,4′-dimethoxy-2-(1H-tetrazol-5-yl)biphenyl-4-yl]-1-(5-fluoro-2-methylphenyl)cy-clopropanecar-boxamide]
274 nM | CCOc1ccc(-c2ccc(NC(=O)C3(c4cccc(F)c4C)CC3)cc2-c2nnn[nH]2)cn1 [Example 256, N-[4-(6-ethoxypyridin-3-yl)-3-(1H-tetrazol-5-yl)phenyl]-1-(3-fluoro-2-methylphenyl)cy-clopropanecar-boxamide]
916 nM | COc1ccc(-c2ccc(NC(=O)C3(c4cccc(F)c4C)CC3)cc2-c2nnn[nH]2)cc1OC [Example 257, N-[3′,4′-dimethoxy-2-(1H-tetrazol-5-yl)biphenyl-4-yl]-1-(3-fluoro-2-methylphenyl)cy-clopropanecar-boxamide]
72.3 nM | O=C(Nc1cc(-c2nnn[nH]2)c(-c2ccc(C(F)(F)F)nc2)cc1O)C1(c2cccc(Cl)c2)CC1 [Example 262, 1-(3-chlorophenyl)-N-{2-hydroxy-5-(1H-tetrazol-5-yl)-4-[6-(trifluoromethyl)pyridin-3-yl]phenyl}cyclopro-panecarboxa-mide]
834 nM | COc1ccc(-c2cc(F)c(NC(=O)C3(c4ccc(Cl)cc4)CC3)cc2-c2nnn[nH]2)cc1OC [Example 264, 1-(4-Chlorophenyl)-N-[5-fluoro-3′,4′-dimethoxy-2-(1H-tetrazol-5-yl)biphenyl-4-yl]cyclopropane carboxamide]
